Data: patent US12257214B2, “Compositions and methods comprising deoxy-pentitols” (The Charlotte Mecklenburg Hospital Authority, priority 2021, dated 2025)
Like-named read-outs stand apart in the source and are kept apart here.

What was measured:
[1] = system: breast cancer cell line MCF7; assay: MCF7 cell culture, growth and death (FIG. 2); type: cell-based; settings: MCF7, 0.4-50 mM, 3 day treatment
Method: From left-top-to-bottom: Control, 0.4 mM Drug, 2 mM rib, and 10 mM Drug; From right-top-to-bottom: 0.4 mM rib; 2 mM Drug; 10 mM rib; and 50 mM Drug.
However, this effect was not related to the enhanced expression of glycosylation of α-DG.

[2] = system: prostate cancer cell line LNCaP; assay: LNCaP cell culture, growth and death (FIG. 5, FIG. 10); type: cell-based; settings: for number of cancer cells / anticancer effect: 10 mM, 7 days (FIG. 10)
Method: A dose dependent decrease in cell density was clearly detected with 2-deoxyribitol treatment, but not with ribitol treatment.
Less than 50% of cells and 10% of cells were detected with the treatment of 10 mM and 50 mM 2-deoxyribitol, respectively.

[3] = system: alpha dystroglycan (α-DG); settings: cited from earlier work
MCF7 cells = assay: Mammosphere formation (FIG. 4); type: cell-based; settings: MCF7, Vitamin C 50 μM 5 days, then normal medium 6 days
Method: Cells were also treated with Vitamin C (VitC) at a concentration of 50 μM for 5 days (5d) and then returned to normal medium (NM) for 6 days (d6), without (lower left panel) or with 2-deoxyribitol (Drug, lower right panel). The formation of cancer mammospheres, considered to be cancer stem cell-rich population, can be seen in culture without Drug treatment, and with Vitamin C treatment only. Drug treatment greatly reduces to eliminates the formation of cancer mammospheres.
To examine mammosphere formation, MCF7 cells were grown for 11 days with or without 2-deoxyribitol (drug) treatment (FIG. 4, top panels). In addition, MCF7 cells were treated with Vitamin C at the concentration of 50 μM for 5 days and then returned to normal medium (“NM”) for 6 days (FIG. 4, lower panels).

[4] = Pei Lu et al., (2020) Sci Rep 10(1):4935

Row | Structure (SMILES) | number of cancer cells / anticancer effect [2] | glycosylation of α-DG [3, 4] | also measured
1 | OC[C@@H](O)[C@@H](O)[C@@H](O)CO [ribitol, reference compound] | did not show the same anticancer effects |  | effect on cell growth, death and morphology [1]: no clear effect on cell growth and morphology; effect on cell growth, death and cell density ([2]; 2-50 mM, 4 days): slightly increased; glycosylation of α-DG ([3]; some cancer cells including MCF7, background statement): enhances glycosylation of α-DG
2 | O=C(CO)[C@H](O)[C@H](O)CO [ribulose] |  | showed an effect of enhancing glycosylation of α-DG | 
3 | O=P(O)(O)OC[C@@H](O)[C@@H](O)[C@@H](O)CO [ribitol-5-phosphate] |  | showed an effect of enhancing glycosylation of α-DG | 
4 | O=C1O[C@H]([C@@H](O)CO)C(O)=C1O [Vitamin C, reference compound] |  |  | number of mammospheres, Vitamin C then normal medium (MCF7 cells): greatly increased the number of well-defined mammospheres
5 | O=CC[C@H](O)[C@H](O)CO [2-deoxyribose, reference compound] | did not show the same anticancer effects |  | 
6 | O=C[C@H](O)[C@H](O)[C@H](O)CO [ribose] |  | showed an effect of enhancing glycosylation of α-DG | 
